pIC50, pKi: −log10 of the molar value. Active and inactive are the calls of the source. The calls are words filed in the database; no cut-off is given here.
Assays:
[1] = tested on: Trypanosoma cruzi; test: Antitrypanosomal activity against Trypanosoma cruzi Tulahuen trypomastigote forms infected in mouse L929 cells up to 250 uM after 96 hrs by chlorophenol red-beta-D-galactopyranoside dye based assay; format: functional, cell-based
[2] = tested on: Trypanosoma brucei; test: Inhibition of recombinant Trypanosoma brucei rhodesain at 100 uM using Z-phe-Arg-amidomethylcoumarin as substrate by fluorometric method relative to control
[3] = biological target: Cruzipain (Trypanosoma cruzi) (UniProt P25779); test: Inhibition of recombinant Trypanosoma cruzi cruzain at 100 uM using Z-phe-Arg-amidomethylcoumarin as substrate by fluorometric method relative to control
Cruzipain (Trypanosoma cruzi), sequence (P25779 123-467 limits assumed): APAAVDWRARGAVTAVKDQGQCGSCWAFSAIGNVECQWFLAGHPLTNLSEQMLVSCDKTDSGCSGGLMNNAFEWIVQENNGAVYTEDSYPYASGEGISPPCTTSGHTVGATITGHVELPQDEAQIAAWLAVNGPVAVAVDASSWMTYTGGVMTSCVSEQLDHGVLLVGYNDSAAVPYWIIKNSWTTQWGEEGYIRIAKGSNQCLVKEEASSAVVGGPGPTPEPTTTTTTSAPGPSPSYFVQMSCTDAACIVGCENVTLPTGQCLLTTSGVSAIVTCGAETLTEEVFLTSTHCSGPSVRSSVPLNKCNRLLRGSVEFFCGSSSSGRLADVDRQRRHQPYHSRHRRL

[4] = tested on: Trypanosoma cruzi; test: Antitrypanosomal activity against Trypanosoma cruzi Tulahuen trypomastigote forms infected in mouse L929 cells after 96 hrs by chlorophenol red-beta-D-galactopyranoside dye based assay; format: functional, cell-based; settings: L929, 96 h
[5] = Cytotoxicity against mouse L929 cells after 96 hrs by alamar blue assay; format: cell-based
[6] = Selectivity index, ratio of CC50 for mouse L929 cells to IC50 for Trypanosoma cruzi Tulahuen trypomastigote forms infected in mouse L929 cells; format: toxicity, cell-based; settings: read-out: Ratio CC50/IC50
[7] = biological target: Cruzipain (Trypanosoma cruzi) (UniProt P25779); test: Inhibition of recombinant Trypanosoma cruzi cruzain at 100 uM in AcOH/AcONA buffer using Z-phe-Arg-amidomethylcoumarin as substrate by fluorometric method relative to control
[8] = tested on: Trypanosoma brucei; test: Inhibition of recombinant Trypanosoma brucei rhodesain at 100 uM in AcOH/AcONA buffer using Z-phe-Arg-amidomethylcoumarin as substrate by fluorometric method relative to control
[9] = biological target: T1, Cruzipain (Trypanosoma cruzi, UniProt P25779); test: Inhibition of recombinant Trypanosoma cruzi cruzain using Z-phe-Arg-amidomethylcoumarin as substrate by fluorometric method
T1 sequence (P25779 whole entry): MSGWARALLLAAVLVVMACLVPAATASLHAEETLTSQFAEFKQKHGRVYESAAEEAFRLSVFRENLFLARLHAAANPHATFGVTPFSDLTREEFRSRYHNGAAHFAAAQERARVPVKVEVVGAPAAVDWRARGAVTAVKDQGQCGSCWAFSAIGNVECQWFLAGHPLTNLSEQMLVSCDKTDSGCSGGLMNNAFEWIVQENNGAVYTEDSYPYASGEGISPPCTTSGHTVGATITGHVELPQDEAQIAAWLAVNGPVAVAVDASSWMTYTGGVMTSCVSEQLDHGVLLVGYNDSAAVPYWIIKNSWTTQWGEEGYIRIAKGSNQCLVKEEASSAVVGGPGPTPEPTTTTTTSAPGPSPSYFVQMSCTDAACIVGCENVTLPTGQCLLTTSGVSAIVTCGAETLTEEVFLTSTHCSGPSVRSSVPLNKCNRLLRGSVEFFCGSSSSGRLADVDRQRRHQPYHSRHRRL

[10] = Inhibition of recombinant Trypanosoma brucei rhodesain using Z-phe-Arg-amidomethylcoumarin as substrate by fluorometric method
[11] = biological target: Cathepsin S (Homo sapiens) (UniProt P25774); test: Inhibition of recombinant human cathepsin S at 100 uM using cbz-val-val-arg-7-amino-4-methylcoumarin as substrate preincubated for 5 mins followed by substrate addition measured for 15 mins by fluorescence assay relative to control
Cathepsin S (Homo sapiens), sequence (P25774 115-331 limits assumed): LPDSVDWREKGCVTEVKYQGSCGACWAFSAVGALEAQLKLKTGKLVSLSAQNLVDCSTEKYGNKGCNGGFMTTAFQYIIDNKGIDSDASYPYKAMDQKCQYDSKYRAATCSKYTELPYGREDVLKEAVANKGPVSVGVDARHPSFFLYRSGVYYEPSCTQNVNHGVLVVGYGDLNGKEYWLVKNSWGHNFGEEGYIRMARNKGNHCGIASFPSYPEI

[12] = biological target: Cathepsin B (Rattus norvegicus) (UniProt P00787); test: Inhibition of rat cathepsin B at 100 uM using cbz-phe-Arg-amidomethylcoumarin as substrate preincubated for 5 mins followed by substrate addition measured for 15 mins by fluorescence assay relative to control
Cathepsin B (Rattus norvegicus), sequence (P00787 80-333 limits assumed): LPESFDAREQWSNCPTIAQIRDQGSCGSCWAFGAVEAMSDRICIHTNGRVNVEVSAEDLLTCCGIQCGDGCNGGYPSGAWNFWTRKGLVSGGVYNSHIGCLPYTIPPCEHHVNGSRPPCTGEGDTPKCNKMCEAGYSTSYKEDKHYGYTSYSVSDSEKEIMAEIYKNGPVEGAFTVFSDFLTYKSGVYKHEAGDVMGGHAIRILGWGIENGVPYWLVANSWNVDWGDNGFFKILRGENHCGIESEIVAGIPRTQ

[13] = biological target: Cathepsin S (Homo sapiens) (UniProt P25774); test: Inhibition of recombinant human cathepsin S at 100 uM using cbz-val-val-arg-7-amino-4-methylcoumarin as substrate measured for 15 mins by fluorescence assay relative to control
[14] = biological target: Cathepsin B (Rattus norvegicus) (UniProt P00787); test: Inhibition of rat cathepsin B at 100 uM using cbz-phe-Arg-amidomethylcoumarin as substrate measured for 15 mins by fluorescence assay relative to control
[15] = biological target: T1, Cruzipain; test: Competitive inhibition of recombinant Trypanosoma cruzi cruzain in presence of varying levels of Z-phe-Arg-amidomethylcoumarin substrate by Lineweaver-Burk plot analysis
[16] = biological target: Cathepsin B (Rattus norvegicus) (UniProt P00787); test: Inhibition of rat cathepsin B at 1 uM using cbz-phe-Arg-amidomethylcoumarin as substrate measured for 15 mins by fluorescence assay relative to control
[17] = biological target: Cathepsin B (Rattus norvegicus) (UniProt P00787); test: Inhibition of rat cathepsin B at 1 uM using cbz-phe-Arg-amidomethylcoumarin as substrate preincubated for 5 mins followed by substrate addition measured for 15 mins by fluorescence assay relative to control
[18] = biological target: Cathepsin S (Homo sapiens) (UniProt P25774); test: Inhibition of recombinant human cathepsin S at 1 uM using cbz-val-val-arg-7-amino-4-methylcoumarin as substrate preincubated for 5 mins followed by substrate addition measured for 15 mins by fluorescence assay relative to control
[19] = biological target: Cathepsin S (Homo sapiens) (UniProt P25774); test: Inhibition of recombinant human cathepsin S at 1 uM using cbz-val-val-arg-7-amino-4-methylcoumarin as substrate measured for 15 mins by fluorescence assay relative to control
[20] = Inhibition of recombinant Trypanosoma brucei rhodesain in AcOH/AcONA buffer using Z-phe-Arg-amidomethylcoumarin as substrate by fluorometric method

SMILES | Activity [1] | inhibition [2] | inhibition [3] | pIC50 [4] | CC50 at 96 h [5] | selectivity ratio [6] | other results
c1c[nH]c(CN2CCc3ccccc3C2)c1 | inactive | 49.1% | 3.2% | – | – | – | –
O=C(Cn1ccnc1[N+](=O)[O-])NCc1ccccc1 [BENZNIDAZOLE] | – | – | – | 5.42 | – | – | –
O=C(CN1CCc2ccccc2C1)Nc1ccccc1 | – | 19.1% | 7.7% | 3.61 | 375 µM | 1.5 | –
c1cc(NCCCN2CCOCC2)ncn1 | inactive | 5% | 1% | – | – | – | –
OCCN1CCN(c2ccnc3cc(Cl)ccc23)CC1 | inactive | – | – | – | – | – | inhibition [7]: 42.6%; inhibition [8]: 53%
CCCNc1ccnc2cc(Cl)ccc12 | – | 49% | 53% | 3.90 | 283 µM | 2.3 | –
Clc1ccc2[nH]c(CNCCCN3CCOCC3)cc2c1 | – | 1% | 15% | 4.41 | 75 µM | 1.9 | –
OCCNc1ccnc2cc(Cl)ccc12 | inactive | 61% | 60% | – | – | – | pIC50 [9]: 4.21; pIC50 [10]: 4.24
Clc1ccc2c(NCc3ccccc3)ccnc2c1 | – | 71% | 65% | 4.43 | 46.5 µM | 1.2 | pIC50 [9]: 4.36; inhibition [11]: 12%; inhibition [12]: 9%; pIC50 [10]: 4.47; inhibition [13]: 17%; inhibition [14]: 2%
NCCCNc1ccnc2cc(Cl)ccc12 | inactive | – | – | – | – | – | inhibition [7]: 39%; inhibition [8]: 53%
CN1CCN(Cc2ccc[nH]2)CC1 | inactive | 32.1% | 10.9% | – | – | – | –
Clc1ccc2c(NCCN3CCCCC3)ccnc2c1 | – | 56% | 43% | 4.24 | 64.5 µM | 1.1 | –
c1ccc(CNCc2cc3ccccc3[nH]2)cc1 | inactive | 8% | 9% | – | – | – | –
Clc1ccc2c(NCCN3CCOCC3)ccnc2c1 | inactive | 61% | 56% | – | – | – | pIC50 [9]: 4.39; pIC50 [10]: 4.21
Clc1ccc2[nH]c3c(NCCCN4CCOCC4)ncnc3c2c1 | – | – | – | – | – | – | pIC50 [9]: 4.82
CN1CCN(c2ccncn2)CC1 | inactive | 13% | 5% | – | – | – | –
O=C(CNc1ccnc2cc(Cl)ccc12)N1CCOCC1 | inactive | 61% | 55% | – | – | – | pIC50 [10]: 4.32
Cc1ccc(NC(=O)CN2CCc3ccccc3C2)cc1 | – | 16.7% | 15.3% | 4.08 | 125 µM | 1.5 | –
Clc1ccc2[nH]c(CNCc3ccccc3)cc2c1 | – | 5% | 4% | 4.60 | 31 µM | 1.2 | –

SMILES | Activity [1] | inhibition [2] | inhibition [3] | pIC50 [4] | CC50 at 96 h [5] | selectivity ratio [6] | other results
O=C(CNCCCN1CCOCC1)Nc1ccc(Cl)cc1 | inactive | 21% | 16.5% | – | – | – | –
OCCCNc1ccnc2cc(Cl)ccc12 | inactive | 63% | 67% | – | – | – | pIC50 [9]: 4.55; inhibition [11]: 4%; inhibition [12]: 5%; pIC50 [10]: 4.14; inhibition [13]: 14%; inhibition [14]: 8%
Clc1ccc2c(NCCCN3CCOCC3)ccnc2c1 | – | 51% | 88% | 4.17 | 123 µM | 1.8 | pIC50 [9]: 4.82; inhibition [11]: 10%; pKi [15]: 4.92; inhibition [12]: 8%; inhibition [13]: 13%; inhibition [14]: 6%
c1c[nH]c(CN2CCOCC2)c1 | inactive | 66.7% | 23.6% | – | – | – | pIC50 [10]: 4.26
CC(C)C[C@H](NC(=O)[C@@H]1O[C@H]1C(=O)O)C(=O)NCCCCN=C(N)N | – | – | – | – | – | – | inhibition [16]: 99%; inhibition [17]: 100%; inhibition [18]: 100%; inhibition [19]: 100%
Clc1ccc2[nH]c(CNC3CCCCC3)cc2c1 | – | 4% | 8% | 4.97 | 12.5 µM | 1.2 | –
O=C(CN1CCc2ccccc2C1)Nc1ccc(Cl)cc1 | – | 20.5% | 18.2% | 4.19 | < 125 µM | < 1.9 | –
Cc1ccc(NC(=O)CN2CCN(C)CC2)cc1 | inactive | 15.5% | 0% | – | – | – | –
c1ccc2c(c1)CCN(c1ccncn1)C2 | – | 20% | 15% | 5.51 | 400 µM | 128 | –
CN1CCN(CC(=O)Nc2ccccc2)CC1 | inactive | 7.4% | 38.6% | – | – | – | –
CN1CCN(CC(=O)Nc2ccc(Cl)cc2)CC1 | inactive | 22.6% | 28.5% | – | – | – | –
Cc1ccc(NC(=O)CNCCCN2CCOCC2)cc1 | inactive | 13.1% | 3.5% | – | – | – | –
O=C(CNCCCN1CCOCC1)Nc1ccccc1 | inactive | 7.4% | 2.9% | – | – | – | –
c1ccc2[nH]c(CNC3CCCCC3)cc2c1 | inactive | 8% | 6% | – | – | – | –
c1ccc2[nH]c(CNCCCN3CCOCC3)cc2c1 | inactive | 7% | 4% | – | – | – | –
Clc1ccc2c(NCCCN3CCCCC3)ccnc2c1 | – | 61% | 53% | 4.42 | 61.5 µM | 1.6 | –
NCCNc1ccnc2cc(Cl)ccc12 | – | – | – | 4.11 | < 194 µM | < 2.5 | inhibition [7]: 44%; inhibition [8]: 62%; pIC50 [20]: 3.90
c1c[nH]c(CNCCCN2CCOCC2)c1 | inactive | 15.1% | 0% | – | – | – | –

Source: ChEMBL document CHEMBL3997824, “Synthesis and biological evaluation of potential inhibitors of the cysteine proteases cruzain and rhodesain designed by molecular simplification” (Bioorg Med Chem, 2017)
